Measurements published in US20170172994A1, “COMPOSITIONS AND METHODS FOR TREATING BACTERIAL INFECTIONS” (WOCKHARDT LIMITED, priority 2013, published 2017).
In brackets after ≈: the same amount, converted by molar mass.

Key:
Pseudomonas PBP 3 = biological target: T1, Pseudomonas PBP 3 (Pseudomonas aeruginosa, UniProt G3XD46); assay: biochemical; format: binding
T1 construct: endogenous in cells
Procedure: The phrase “selective and high affinity PBP binder” refers to a PBP binder which binds to only one PBP with very high affinity. In general, the term “selective and high affinity PBP binder” also includes those binders where a substantial fraction of binder selectively binds to only one PBP with high affinity.
The reaction mixtures were then denatured with 20 μl each of SDS-denaturing solution at 100° C. for 3 min PBPs were separated through 10% SDS polyacrylamide gel electrophoresis (Bio-Rad Laboratories, Hercules, Calif.). The protein gels were rinsed in water immediately after electrophoresis.

P. mirabilis G 186 [1] = assay: Minimum filamentation / spheroplasting concentration; settings: Proteus mirabilis, G186
Description: (§6) The term “MSC” as used herein refers to minimum spheroplasting concentration, which is the minimum concentration of an antibacterial agent at which about 80% of bacterial cells covert into spheroplasts.
(§7) The term “MFC” as used herein refers to minimum filamentation concentration, which is the minimum concentration of an antibacterial agent at which about 80% of bacterial cells get elongated to form filament like structures.

K. pneumoniae B88 [2] = assay: as above; settings: Klebsiella pneumoniae, B88
Description: as §6, §7

Pseudomonas PBP 1A = biological target: T2, Pseudomonas PBP 1A (Pseudomonas aeruginosa, UniProt Q07806); assay: PBP binding assay (Bocillin FL competition); settings: Pseudomonas PBP 1A; read-out: IC50 (converted)
T2 construct: endogenous in cells
Procedure: (§1) The phrase “selective and high affinity PBP binder” refers to a PBP binder which binds to only one PBP with very high affinity. In general, the term “selective and high affinity PBP binder” also includes those binders where a substantial fraction of binder selectively binds to only one PBP with high affinity. […]. The term “IC50 value” of a compound refers to the concentration of the compound that reduces the binding of Bocillin-FL to PBPs by 50% as compared to when no compound was added to the reaction.
(§2) A compound of Formula (III) was prepared using the procedure disclosed in PCT International Application No. PCT/IB2012/054290 and was evaluated for its PBP binding affinity profile. […] The reaction mixtures were then denatured with 20 μl each of SDS-denaturing solution at 100° C. for 3 min PBPs were separated through 10% SDS polyacrylamide gel electrophoresis (Bio-Rad Laboratories, Hercules, Calif.). The protein gels were rinsed in water immediately after electrophoresis. […] […].

Pseudomonas PBP 5/6 = Pseudomonas PBP 5/6 (Pseudomonas aeruginosa, UniProt G3XD74); assay: PBP binding assay (Bocillin FL competition)
Procedure: as §1, §2

K. pneumoniae B88 [3] = assay: MIC determination; format: cell-based; settings: Klebsiella pneumoniae; K. pneumoniae B88 (NDM, SHV, TEM)
Procedure: (§3) In a typical procedure for determining MIC values, overnight grown bacterial cultures were diluted appropriately and inoculated on the agar media containing doubling concentrations of the test compounds. Observation for growth or no growth was performed after 16-20 hours of incubation at 35±2° C. in ambient air. The overall procedure was performed as per Clinical and Laboratory Standards Institute (CLSI) recommendations (Clinical and Laboratory Standards Institute (CLSI), Performance Standards for Antimicrobial Susceptibility Testing, 20th Informational Supplement, M 100-S20, Volume 30, No. 1, 2010).

P. mirabilis G 186 [4] = assay: MIC determination; format: cell-based; settings: Proteus mirabilis, G186; P. mirabilis G 186 (NDM, TEM)
Procedure: as §3

[5] = test system: MDR P. mirabilis G 186 producing NDM & TEM β-lactamases; assay: Time kill study at MFC and MSC; format: cell-based; settings: for Bacterial count: Cefepime 8 mcg/ml (MFC), Compound of Formula (III) 0.25 mcg/ml (MSC), Imepenem 8 mcg/ml
Procedure: (§4) The synergistic killing effect of the combinations according to invention was studied by performing time kill studies. In a typical time kill study, the freshly grown cultures were diluted to the required cell density (initial starting inoculum) in Cation adjusted Muller Hinton broth medium (BD, USA). The antibacterial agents (either alone or in combination) at the required concentrations were added into the culture-containing medium. The samples were incubated under shaking condition (120 rpm) at 37° C. Enumeration of viable bacterial count was done every 2 hour by diluting in normal saline and plating on to the Tryptic Soya Agar plates (BD, USA). The plates were incubated for 24 hours to arrive at the viable bacterial count. The results are expressed in terms of Log CFU per ml. In general, the decrease of 1 Log CFU/ml, corresponds to 90% killing of bacteria. Similarly, 2 Log CFU/ml reductions indicates to 99% killing of bacteria and 3 Log CFU/ml reductions is equal to 99.9% killing of bacteria.

[6] = test system: MDR Klebsiella pneumoniae B 88 producing NDM, SHV & TEM beta-lactamases; assay: Time kill study at MFC and MSC; format: cell-based; settings: for Bacterial count: Cefepime 8 mcg/ml (MFC), Compound of Formula (III) 0.12 mcg/ml (MSC), Imepenem 8 mcg/ml
Procedure: as §4

[7] = test system: Pseudomonas aeruginosa NCTC 13437 producing carbapenem hydrolyzing MBL (VIM 10) & Class A (VEB1); assay: Time kill study (viability count); format: cell-based; settings: Cefepime 8 μg/ml, Compound of Formula (III) 8 μg/ml, Imipenem 16 μg/ml
Procedure: (§5) The antibacterial effectiveness of various antibacterial agents in presence of a compound of Formula (III) was investigated and the results are detailed below. In a typical study, overnight cultures in Trypticase soya broth (TSB) were brought to log phase by 1 in 10 dilution in fresh cation adjusted Mueller Hinton Broth (MHB) and incubation for 2.5 hours at 35° C. in orbital shaker. Log phase cultures were diluted to desired inoculums in flasks with MHB, containing various drug concentrations. Flasks were incubated at 35° C. in orbital shaker with rotational speed of 125 rpm. Viability count was determined by 1 in 10 serial dilutions of samples in normal saline and surface spreading of 10 μl of dilutions in duplicate on Trypticase soya agar plates. Plates were incubated for 24 hours at 35° C. and colonies were enumerated to determine the colony forming units (CFU) per ml volume.

[8] = test system: Acinetobacter baumannii NCTC 13304 producing carbapenem hydrolyzing Class D OXA enzyme (OXA 27); assay: Time kill study (viability count); format: cell-based; settings: Cefepime 8 μg/ml, Compound of Formula (III) 8 μg/ml, Imipenem 16 μg/ml
Procedure: as §5

Pseudomonas PBP 5/6, sequence (G3XD74 entry or part of it): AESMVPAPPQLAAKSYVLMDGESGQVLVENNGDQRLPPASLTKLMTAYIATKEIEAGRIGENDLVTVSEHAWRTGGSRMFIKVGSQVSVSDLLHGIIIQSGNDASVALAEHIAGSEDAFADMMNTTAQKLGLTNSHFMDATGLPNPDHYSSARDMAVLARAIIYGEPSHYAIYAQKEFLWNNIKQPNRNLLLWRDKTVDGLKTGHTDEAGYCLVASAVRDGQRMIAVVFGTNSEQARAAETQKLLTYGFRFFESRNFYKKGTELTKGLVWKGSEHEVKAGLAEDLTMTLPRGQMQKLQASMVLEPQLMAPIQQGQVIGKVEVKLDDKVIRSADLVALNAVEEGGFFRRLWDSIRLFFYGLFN
T2 sequence (Q07806 whole entry): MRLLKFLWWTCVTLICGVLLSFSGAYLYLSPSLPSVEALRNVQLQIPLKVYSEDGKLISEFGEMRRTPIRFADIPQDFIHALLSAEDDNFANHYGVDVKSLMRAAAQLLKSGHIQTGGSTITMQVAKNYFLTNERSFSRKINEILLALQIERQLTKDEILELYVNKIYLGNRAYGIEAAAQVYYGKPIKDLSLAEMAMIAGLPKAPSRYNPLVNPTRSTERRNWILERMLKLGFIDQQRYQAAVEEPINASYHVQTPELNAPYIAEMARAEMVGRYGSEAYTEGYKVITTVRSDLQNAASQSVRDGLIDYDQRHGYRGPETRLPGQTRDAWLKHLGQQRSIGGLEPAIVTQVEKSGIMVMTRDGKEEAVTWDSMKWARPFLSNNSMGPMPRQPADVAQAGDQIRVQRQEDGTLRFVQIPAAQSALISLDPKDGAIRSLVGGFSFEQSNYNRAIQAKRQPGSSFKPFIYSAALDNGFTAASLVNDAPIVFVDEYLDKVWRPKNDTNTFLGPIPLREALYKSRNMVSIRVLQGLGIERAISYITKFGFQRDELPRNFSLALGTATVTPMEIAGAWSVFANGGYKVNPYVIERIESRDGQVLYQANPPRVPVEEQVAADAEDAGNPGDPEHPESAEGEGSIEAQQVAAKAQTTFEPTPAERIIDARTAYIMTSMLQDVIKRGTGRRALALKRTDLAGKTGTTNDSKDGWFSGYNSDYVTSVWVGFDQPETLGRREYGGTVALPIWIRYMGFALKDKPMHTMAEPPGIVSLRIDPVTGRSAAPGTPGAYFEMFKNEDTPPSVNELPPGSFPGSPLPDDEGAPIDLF
T1 sequence (G3XD46 whole entry): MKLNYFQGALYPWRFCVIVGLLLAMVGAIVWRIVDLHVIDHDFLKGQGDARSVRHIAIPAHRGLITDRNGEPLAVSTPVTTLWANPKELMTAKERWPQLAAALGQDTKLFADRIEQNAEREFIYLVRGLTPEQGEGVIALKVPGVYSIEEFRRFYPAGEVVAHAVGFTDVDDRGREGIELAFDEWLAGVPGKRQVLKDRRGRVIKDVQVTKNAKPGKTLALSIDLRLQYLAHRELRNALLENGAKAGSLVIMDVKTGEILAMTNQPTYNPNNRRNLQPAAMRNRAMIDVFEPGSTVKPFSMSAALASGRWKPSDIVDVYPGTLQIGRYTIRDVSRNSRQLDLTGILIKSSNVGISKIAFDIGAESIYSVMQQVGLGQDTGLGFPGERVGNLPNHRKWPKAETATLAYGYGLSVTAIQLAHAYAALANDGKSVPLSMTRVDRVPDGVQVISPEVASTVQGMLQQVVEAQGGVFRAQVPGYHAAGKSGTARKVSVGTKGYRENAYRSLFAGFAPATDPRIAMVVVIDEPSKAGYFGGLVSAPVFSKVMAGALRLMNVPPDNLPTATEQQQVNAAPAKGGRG

Compound: CO/N=C(\C(=O)N[C@@H]1C(=O)N2C(C(=O)[O-])=C(C[N+]3(C)CCCC3)CS[C@H]12)c1csc(N)n1 [Cefepime]
- IC50 (Pseudomonas PBP 3): 312 nM
- MFC (P. mirabilis G 186 [1]): 8 µg/mL (≈ 16.6 µM)
- MFC (K. pneumoniae B88 [2]): 8 µg/mL (≈ 16.6 µM)
- IC50 (Pseudomonas PBP 1A): 250 nM
- IC50 (Pseudomonas PBP 5/6): > 8320 nM
- MIC (K. pneumoniae B88 [3]): > 64 µg/mL
- MIC (P. mirabilis G 186 [4]): > 64 µg/mL
- Bacterial count ([5]; 0 hour): 6.58 Log10 CFU/ml
- Bacterial count ([5]; 2 hours): 6.04 Log10 CFU/ml
- Bacterial count ([5]; 4 hours): 7.93 Log10 CFU/ml
- Bacterial count ([5]; 6 hours): 8.66 Log10 CFU/ml
- Bacterial count ([5]; 8 hours): 8.85 Log10 CFU/ml
- Antibacterial activity (in words) ([5]; P. mirabilis G 186, at MFC and MSC concentration, Table 14): did not exhibit antibacterial activity
- Bacterial count ([6]; 0 hour): 6.14 Log10 CFU/ml
- Bacterial count ([6]; 2 hours): 6.65 Log10 CFU/ml
- Bacterial count ([6]; 4 hours): 8.30 Log10 CFU/ml
- Bacterial count ([6]; 6 hours): 9.11 Log10 CFU/ml
- Bacterial count ([6]; 8 hours): 9.04 Log10 CFU/ml
- Antibacterial activity (in words) ([6]; Klebsiella pneumoniae B 88, at MFC and MSC concentration, Table 13): did not exhibit antibacterial activity
- Bacterial count ([7]; 0 hour): 6.0 log (CFU/ml)
- Bacterial count ([7]; 2 hours): 6.49 log (CFU/ml)
- Bacterial count ([7]; 4 hours): 7.74 log (CFU/ml)
- Bacterial count ([7]; 6 hours): 8.02 log (CFU/ml)
- Bacterial count ([7]; 12 hours): 8.8 log (CFU/ml)
- Bacterial count ([8]; 0 hour): 6.3 log (CFU/ml)
- Bacterial count ([8]; 2 hours): 7.3 log (CFU/ml)
- Bacterial count ([8]; 4 hours): 7.5 log (CFU/ml)
- Bacterial count ([8]; 6 hours): 7.8 log (CFU/ml)
- Bacterial count ([8]; 8 hours): 8.0 log (CFU/ml)
